Laboratory results reported in ChEMBL document CHEMBL1201862, “PubChem BioAssay data set” (2004).
Values belong to the compound of their own block, whether it stands above or below them. Activity calls are given as the source filed them.

Columns and labels:
[1] = biological target: 1-phosphatidylinositol 4,5-bisphosphate phosphodiesterase gamma-1 (Homo sapiens, UniProt P19174); assay: Counterscreen for inhibitors of phospholipase C isozymes (PLC-B3): Fluorescence-based biochemical high throughput dose response assay to identify inhibitors of phospholipase C isozymes (PLC-gamma1).
[2] = biological target: 1-phosphatidylinositol 4,5-bisphosphate phosphodiesterase beta-3 (Homo sapiens, UniProt Q01970); assay: Fluorescence-based biochemical high throughput dose response assay to identify inhibitors of phospholipase C isozymes (PLC-B3).
cells [3] = type: functional, cell-based
cells [4] = type: functional, cell-based; remark: listed apart in the source
[5] = biological target: T1, Oxysterols receptor LXR-beta (Homo sapiens, UniProt P55055); type: functional, cell-based;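 also: agonist activity at LXR measured by a cell-based luminescence readout across a dose range, run as a counterscreen for daf-12 agonists; HEK293 cells with Gal4-LXR fusion and GAL4-driven luciferase reporter; potency for activation of Gal4-LXR reporter so compounds are agonists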
T1 sequence (P55055 whole entry): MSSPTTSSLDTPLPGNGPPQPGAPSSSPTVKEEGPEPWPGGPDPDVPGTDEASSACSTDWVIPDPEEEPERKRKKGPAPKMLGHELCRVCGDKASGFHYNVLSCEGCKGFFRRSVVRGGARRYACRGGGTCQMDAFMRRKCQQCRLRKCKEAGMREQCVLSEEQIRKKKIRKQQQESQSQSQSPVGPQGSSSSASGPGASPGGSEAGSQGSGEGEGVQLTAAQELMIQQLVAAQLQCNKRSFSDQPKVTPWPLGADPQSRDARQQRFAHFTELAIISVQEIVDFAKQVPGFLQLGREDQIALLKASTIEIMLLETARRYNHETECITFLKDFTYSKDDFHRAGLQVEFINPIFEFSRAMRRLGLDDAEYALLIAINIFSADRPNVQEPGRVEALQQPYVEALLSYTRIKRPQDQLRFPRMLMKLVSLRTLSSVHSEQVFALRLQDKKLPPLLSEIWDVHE

Paired box protein Pax-8 = Paired box protein Pax-8 (Homo sapiens, UniProt Q06710); assay: inhibitors of PAX8-driven TPO luciferase reporter, dose response, RMG-I cells, cherry-pick (AID 687027); type: functional, cell-based;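 also: luciferase reporter driven by Pax8 target thyroperoxidase promoter measured by SteadyGlo luminescence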
[6] = PAX2 cell-based inhibition, dose response, selectivity assay for PAX8 inhibitor project, plate reader, dry powder samples (AID 743048); type: functional;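 also: HEK293 cells carrying a WT1 promoter luciferase reporter driven by expressed Pax2; potency is for inhibition of Pax2 driven reporter signal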
[7] = cytotoxicity in COV362 ovarian cancer cells, dose response, cytotoxicity control for PAX8 inhibitor project, cell-based, plate reader, dry powder, SA12 (AID 743144); type: functional
[8] = A2780 ovarian cancer cell cytotoxicity, dose response, cytotoxicity control, plate reader, dry powder samples (AID 743046); type: functional, cell-based
[9] = NIH:OVCAR-3 ovarian cancer cell cytotoxicity, dose response, PAX8 inhibitor project, plate reader, dry powder samples (AID 743044); type: functional, cell-based
[10] = PAX5 activity inhibitors, dose response, selectivity assay for PAX8 inhibitor project, cell-based, plate reader, dry powder samples (AID 743047); type: functional;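 also: HEK293 cells carrying a Pax5 driven CD19 promoter luciferase reporter; potency of inhibitors that lower reporter luminescence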
[11] = cytotoxicity in COV434 cells, dose response, cytotoxicity control for PAX8 inhibitor project, cell-based, plate reader, dry powder, SA7 (AID 743145); type: functional
[12] = cytotoxicity in OV-90 ovarian cancer cells, dose response, PAX8 inhibitor project, cell-based, plate reader, dry powder, SA8 (AID 743149); type: functional
[13] = cytotoxicity in OVCAR8 ovarian cancer cells, dose response, PAX8 project, cell-based, plate reader, dry powder samples (AID 743197); type: functional; settings: OVCAR-8
[14] = cytotoxicity dependent on PAX8, dose response, cell-based, plate reader, dry powder (AID 743049); type: functional
[15] = A549 cell cytotoxicity, dose response, cytotoxicity control, plate reader, cherry-pick, antagonist series (AID 743412); type: functional, cell-based
[16] = LGR2 antagonists, dose response, cell-based, HEK293, CRE-luciferase reporter, cherry pick, set 2 (AID 743343); type: functional;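 also: transfected cells were stimulated with diluted bursicon conditioned medium after compound addition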
[17] = MC4R antagonists, dose response, counter-screen for LGR2 antagonist project, cell-based, plate reader, cherry pick (AID 743444); type: functional;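 also: transfected HEK 293 cells stimulated with alpha-MSH peptide; potency of inhibitors of the alpha-MSH evoked signal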

Sequence of 1-phosphatidylinositol 4,5-bisphosphate phosphodiesterase beta-3 (Q01970 whole entry): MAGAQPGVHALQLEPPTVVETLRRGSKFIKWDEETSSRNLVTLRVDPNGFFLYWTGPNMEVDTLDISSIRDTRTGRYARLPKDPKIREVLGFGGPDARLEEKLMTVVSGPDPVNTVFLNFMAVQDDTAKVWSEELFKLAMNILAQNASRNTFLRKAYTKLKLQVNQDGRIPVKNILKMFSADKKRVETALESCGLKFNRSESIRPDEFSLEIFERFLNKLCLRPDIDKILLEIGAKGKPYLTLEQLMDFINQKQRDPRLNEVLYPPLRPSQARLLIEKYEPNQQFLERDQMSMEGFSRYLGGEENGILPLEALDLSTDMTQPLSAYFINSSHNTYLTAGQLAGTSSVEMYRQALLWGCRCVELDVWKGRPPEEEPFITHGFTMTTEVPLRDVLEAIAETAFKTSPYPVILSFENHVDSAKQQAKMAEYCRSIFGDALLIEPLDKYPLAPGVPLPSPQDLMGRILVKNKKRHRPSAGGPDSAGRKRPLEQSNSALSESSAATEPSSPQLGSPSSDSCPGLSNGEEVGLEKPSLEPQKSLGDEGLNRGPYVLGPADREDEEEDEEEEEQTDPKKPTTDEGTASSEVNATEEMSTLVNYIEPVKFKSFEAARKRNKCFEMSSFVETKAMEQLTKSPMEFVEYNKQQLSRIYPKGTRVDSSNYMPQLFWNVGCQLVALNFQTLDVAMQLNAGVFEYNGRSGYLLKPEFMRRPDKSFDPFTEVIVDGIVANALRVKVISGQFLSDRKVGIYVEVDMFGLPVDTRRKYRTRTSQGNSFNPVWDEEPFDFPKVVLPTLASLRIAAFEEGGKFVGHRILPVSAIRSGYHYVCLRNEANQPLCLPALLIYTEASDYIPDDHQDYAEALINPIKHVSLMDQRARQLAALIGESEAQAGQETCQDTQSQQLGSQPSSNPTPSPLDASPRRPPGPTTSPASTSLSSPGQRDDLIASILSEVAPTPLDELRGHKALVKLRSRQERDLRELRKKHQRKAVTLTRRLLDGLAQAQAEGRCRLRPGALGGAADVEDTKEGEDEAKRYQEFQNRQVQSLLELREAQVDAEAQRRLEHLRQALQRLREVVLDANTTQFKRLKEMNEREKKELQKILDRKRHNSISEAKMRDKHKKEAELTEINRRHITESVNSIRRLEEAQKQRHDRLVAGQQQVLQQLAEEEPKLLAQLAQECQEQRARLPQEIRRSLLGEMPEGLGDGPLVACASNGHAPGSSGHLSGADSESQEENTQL
Sequence of 1-phosphatidylinositol 4,5-bisphosphate phosphodiesterase gamma-1 (P19174 whole entry): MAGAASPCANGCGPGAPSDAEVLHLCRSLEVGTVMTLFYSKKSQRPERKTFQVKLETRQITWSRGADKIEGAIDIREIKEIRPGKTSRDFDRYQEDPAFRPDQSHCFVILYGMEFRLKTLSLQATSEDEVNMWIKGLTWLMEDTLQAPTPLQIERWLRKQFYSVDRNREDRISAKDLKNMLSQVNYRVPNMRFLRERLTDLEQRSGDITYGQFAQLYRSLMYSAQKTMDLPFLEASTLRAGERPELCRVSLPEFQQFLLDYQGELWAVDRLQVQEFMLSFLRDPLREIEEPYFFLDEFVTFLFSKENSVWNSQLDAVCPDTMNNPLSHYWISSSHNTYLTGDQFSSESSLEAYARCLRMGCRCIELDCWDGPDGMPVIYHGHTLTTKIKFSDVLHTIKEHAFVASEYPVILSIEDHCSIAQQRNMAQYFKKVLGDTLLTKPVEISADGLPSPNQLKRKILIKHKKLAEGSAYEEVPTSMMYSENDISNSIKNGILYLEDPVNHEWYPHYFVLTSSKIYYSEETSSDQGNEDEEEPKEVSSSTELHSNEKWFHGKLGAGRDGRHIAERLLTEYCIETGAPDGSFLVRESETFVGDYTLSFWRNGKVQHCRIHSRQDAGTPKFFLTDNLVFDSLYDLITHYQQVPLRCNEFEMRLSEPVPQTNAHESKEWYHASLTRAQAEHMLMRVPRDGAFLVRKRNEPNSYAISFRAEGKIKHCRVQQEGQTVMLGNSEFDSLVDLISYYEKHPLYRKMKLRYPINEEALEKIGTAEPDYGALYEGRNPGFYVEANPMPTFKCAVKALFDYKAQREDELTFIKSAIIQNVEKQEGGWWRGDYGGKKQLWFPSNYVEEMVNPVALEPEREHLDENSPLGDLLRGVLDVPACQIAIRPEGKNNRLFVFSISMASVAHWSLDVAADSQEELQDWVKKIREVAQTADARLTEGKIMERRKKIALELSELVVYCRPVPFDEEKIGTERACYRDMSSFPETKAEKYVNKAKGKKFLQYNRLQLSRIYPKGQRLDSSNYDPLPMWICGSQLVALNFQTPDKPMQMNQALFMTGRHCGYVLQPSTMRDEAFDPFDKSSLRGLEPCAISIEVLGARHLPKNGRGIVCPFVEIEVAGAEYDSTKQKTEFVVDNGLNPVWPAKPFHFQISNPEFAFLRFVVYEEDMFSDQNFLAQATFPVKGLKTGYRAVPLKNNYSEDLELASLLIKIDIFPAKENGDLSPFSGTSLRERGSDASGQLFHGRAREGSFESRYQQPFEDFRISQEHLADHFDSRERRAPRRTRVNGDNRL
Sequence of Paired box protein Pax-8 (Q06710 whole entry): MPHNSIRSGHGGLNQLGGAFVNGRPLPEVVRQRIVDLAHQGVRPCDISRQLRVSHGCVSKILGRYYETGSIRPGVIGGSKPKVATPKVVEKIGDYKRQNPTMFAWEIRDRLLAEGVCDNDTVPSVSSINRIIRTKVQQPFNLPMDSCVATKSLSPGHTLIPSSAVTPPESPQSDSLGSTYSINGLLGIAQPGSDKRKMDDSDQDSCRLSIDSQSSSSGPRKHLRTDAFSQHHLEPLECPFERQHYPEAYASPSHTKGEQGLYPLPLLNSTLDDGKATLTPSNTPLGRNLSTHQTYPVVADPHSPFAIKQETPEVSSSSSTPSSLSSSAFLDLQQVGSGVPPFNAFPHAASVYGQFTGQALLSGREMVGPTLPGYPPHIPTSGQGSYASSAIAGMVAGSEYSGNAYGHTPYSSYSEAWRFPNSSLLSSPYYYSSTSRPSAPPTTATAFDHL

IC50 [1]: 2.7 µM (active)
IC50 [2]: > 122 µM (inactive)
SMILES: COC(=O)C(C)(C)c1cccnc1C#N

SMILES: CSc1ccc(/C=N/Nc2ccc(Cl)c(C(=O)O)c2)cc1
EC50 (cells [3]): > 350 µM (not active)
EC50 (cells [4]): 7.23 µM (active)
EC50 [5]: > 67.5 µM (inactive)

SMILES: CCCC#Cc1ccc([C@H]2[C@@H](C#N)N(C(=O)C3CCCCC3)[C@H]2CO)cc1
AC50 (Paired box protein Pax-8): 12.7 µM (active)
AC50 [6]: 7.11 µM (active)
AC50 [7]: 49.9 µM (active)
AC50 [8]: 23.9 µM (active)
AC50 [9]: 29.6 µM (active)
AC50 [10]: 3.5 µM (active)
AC50 [11]: 30 µM (active)
AC50 [12]: 28 µM (active)
AC50 [13]: 30.3 µM (active)
AC50 [14]: 13.2 µM (active)

IC50 [1]: 59.1 µM (inactive)
IC50 [2]: 55.4 µM (inactive)
SMILES: CCCNC(=O)C[C@H]1CC[C@H]2[C@@H](COc3ccc(NC(=O)c4cncs4)cc3C(=O)N2C)O1

SMILES: CN1c2ccc(-c3ccc(F)cc3)cc2[C@H]2[C@H](CCN2C(=O)Nc2ccc(F)cc2)[C@H]1CO
AC50 [15]: 24.3 µM (active)
AC50 [16]: 18.6 µM (active)
AC50 [17]: 18.4 µM (active)
